This passage reports IC50 and EC50 results from patent US6881741B2 (ViroChem Pharma Inc., priority 2001, dated 2005).

Chain of recombinant HCV NS5B (HCV RNA-dependent RNA polymerase) (P26663 2420-3010 limits assumed): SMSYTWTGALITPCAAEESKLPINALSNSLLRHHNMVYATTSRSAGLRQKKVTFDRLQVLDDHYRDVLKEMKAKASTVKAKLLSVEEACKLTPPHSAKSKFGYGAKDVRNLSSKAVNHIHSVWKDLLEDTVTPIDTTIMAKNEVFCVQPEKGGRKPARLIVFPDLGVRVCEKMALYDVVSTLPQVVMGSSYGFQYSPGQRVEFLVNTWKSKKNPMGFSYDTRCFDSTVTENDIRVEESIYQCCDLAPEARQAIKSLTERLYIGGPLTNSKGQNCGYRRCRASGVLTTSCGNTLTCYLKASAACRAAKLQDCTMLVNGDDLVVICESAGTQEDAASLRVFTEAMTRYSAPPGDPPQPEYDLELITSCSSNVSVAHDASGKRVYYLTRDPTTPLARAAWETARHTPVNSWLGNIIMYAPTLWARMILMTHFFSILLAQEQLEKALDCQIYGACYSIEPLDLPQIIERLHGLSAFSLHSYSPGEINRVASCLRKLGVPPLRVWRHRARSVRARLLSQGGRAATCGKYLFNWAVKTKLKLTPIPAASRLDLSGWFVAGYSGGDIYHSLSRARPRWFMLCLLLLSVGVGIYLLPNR

The first test concerns the target recombinant HCV NS5B (HCV RNA-dependent RNA polymerase) (Hepatitis C virus genotype 1b, UniProt P26663). The test is described as follows: biochemical. To be noted: HCV polymerase activity, list of compounds of Example 27; read-out: IC50 (polymerase activity).
A word on the IC50: it is the concentration needed to halve the response being measured. `COc1cccc(CN(C(=O)C2CCC2)c2cc(-c3ccccc3)sc2C(=O)O)c1` [Compound 473, 3-[CYCLOBUTANECARBONYL-(3- METHOXY-BENZYL)-AMINO]-5-PHENYL- THIOPHENE-2-CARBOXYLIC ACID]: the IC50 was 5 to 20 µM.

Take `O=C(O)c1sc(-c2ccccc2)cc1N(Cc1ccccc1)C(=O)C1CC1` [Compound 454, 3-(BENZYL-CYCLOPROPANECARBONYL- AMINO)-5-PHENYL-THIOPHENE-2- CARBOXYLIC ACID]: the half-maximal inhibitory concentration (IC50) is less than 5 µM. On to `CC(C)(C)OC(=O)N1CCCC(N(C(=O)c2ccc(Cl)cc2Cl)c2cc(-c3ccccc3)sc2C(=O)O)C1` (stereo not shown) [Compound 511, 3-[(2-CARBOXY-5-PHENYL-THIOPHEN-3- YL)-(2,4-DICHLORO-BENZOYL)-AMINO]- PIPERIDINE-1-CARBOXYLIC ACID #TERT!-BUTYL ESTER], for which the IC50 is less than 5 µM. On to `O=C(O)c1sc(-c2ccccc2)cc1N(C(=O)c1ccc(Cl)cc1Cl)C1CC[C@@H](C(=O)O)C1` (stereo in doubt) [Compound 547, 3-[(3-CARBOXY-CYCLOPENTYL)-(2,4- DICHLORO-BENZOYL)-AMINO]-5- PHENYL-THIOPHENE-2-CARBOXYLIC ACID], for which the IC50 was less than 5 µM. Regarding `CC(=O)N(Cc1cccc(C)c1)c1cc(-c2ccccc2)sc1C(=O)O` [Compound 434, 3-[ACETYL-(3-METHYL-BENZYL)-AMINO]- 5-PHENYL-THIOPHENE-2-CARBOXYLIC ACID], the IC50 fell in the range of 5 to 20 µM. As for `CCC(=O)N(Cc1cccc(OC)c1)c1cc(-c2ccccc2)sc1C(=O)O` [Compound 471, 3-[(3-METHOXY-BENZYL)-PROPIONYL- AMINO]-5-PHENYL-THIOPHENE-2- CARBOXYLIC ACID], the IC50 was more than 20 µM. Regarding `CC(C)C(=O)N(Cc1ccc(C(F)(F)F)cc1)c1cc(-c2ccccc2)sc1C(=O)O` [Compound 411, 3-[ISOBUTYRYL-(4-TRIFLUOROMETHYL- BENZYL)-AMINO]-5-PHENYL-THIOPHENE- 2-CARBOXYLIC ACID], the IC50 was in the range of 5 to 20 µM.

As for `O=C(O)c1sc(-c2ccccc2)cc1N(Cc1cccc(Cl)c1)C(=O)C1CC1` [Compound 480, 3-[(3-CHLORO-BENZYL)- CYCLOPROPANECARBONYL-AMINO]-5- PHENYL-THIOPHENE-2-CARBOXYLIC ACID], the IC50 fell in the range of 5 to 20 µM.

Take `Cc1cccc(CN(C(=O)C2CC2)c2cc(-c3ccccc3)sc2C(=O)O)c1` [Compound 466, 3-[CYCLOPROPANECARBONYL-(3- METHYL-BENZYL)-AMINO]-5-PHENYL- THIOPHENE-2-CARBOXYLIC ACID]: the IC50 is 5 to 20 µM. Consider `O=C(O)c1sc(-c2ccccc2)cc1N(Cc1ccccc1Cl)C(=O)C1CCCCC1` [Compound 444, 3-[(2-CHLORO-BENZYL)- CYCLOHEXANECARBONYL-AMINO]-5- PHENYL-THIOPHENE-2-CARBOXYLIC ACID], for which the half-maximal inhibitory concentration (IC50) is less than 5 µM.

Staying with this test, now noted: related polymerase activity (Example 27 list); read-out: IC50.
As for `CC(C)Cc1ccc(-c2cc(NS(=O)(=O)c3ccc(C#N)cc3Cl)c(C(=O)O)s2)cc1` [Compound #228, 3-(2-Chloro-4-cyanobenzenesulfonyl-amino)-5-(4-isobutylphenyl)-thiophene-2-carboxylic acid], the IC50 was more than 20 µM. For `COc1cccc(S(=O)(=O)Nc2cc(-c3ccc(CC(C)C)cc3)sc2C(=O)O)c1` [Compound #225], the IC50 is more than 20 µM. `Cc1ccccc1S(=O)(=O)Nc1cc(-c2ccccn2)sc1C(=O)O` [Compound 128, 5-PYRIDIN-2-YL-3-(TOLUENE-2-SULFONYLAMINO)-THIOPHENE-2-CARBOXYLIC ACID]: the IC50 was less than 5 µM. Regarding `COc1ccc(C(=O)N(C)c2cc(-c3ccccc3)sc2C(=O)O)cc1OC` [Compound 276, 3-[(3,4-DIMETHOXY-BENZOYL)-METHYL-AMINO]-5-PHENYL-THIOPHENE-2-CARBOXYLIC ACID], the IC50 is more than 20 µM.

As for `O=C(O)c1sc(-c2ccccc2)cc1NS(=O)(=O)c1ccccc1[N+](=O)[O-]` [Compound 45, 3-(2-NITRO-BENZENESULFONYLAMINO)-5-PHENYL-THIOPHENE-2-CARBOXYLIC ACID], the IC50 was less than 5 µM. On to `Cc1ccccc1S(=O)(=O)Nc1cc(-c2ccc(C(=O)O)cc2)sc1C(=O)OC(C)(C)C` [Compound 239, 5-(4-CARBOXY-PHENYL)-3-(TOLUENE-2-SULFONYLAMINO)-THIOPHENE-2-CARBOXYLIC ACID TERT-BUTYL ESTER], for which the IC50 fell in the range of 5 to 20 µM. Same read-out and setting: as for `CC(=O)c1ccc(-c2cc(NS(=O)(=O)c3ccccc3C)c(C(=O)O)s2)cc1` [Compound 166, 5-(4-ACETYL-PHENYL)-3-(TOLUENE-2-SULFONYLAMINO)-THIOPHENE-2-CARBOXYLIC ACID], the figure is less than 5 µM; as for `CCOC(=O)c1cccc(-c2cc(NS(=O)(=O)c3ccccc3C)c(C(=O)O)s2)c1` [Compound 121, 5-(3-ETHOXYCARBONYL-PHENYL)-3-(TOLUENE-2-SULFONYLAMINO)-THIOPHENE-2-CARBOXYLIC ACID], 5 to 20 µM; as for `Cc1ccc(S(=O)(=O)Nc2cc(-c3ccccc3)sc2C(=O)O)cc1` [Compound 13, 5-PHENYL-3-(TOLUENE-4-SULFONYLAMINO)-THIOPHENE-2-CARBOXYLIC ACID], less than 5 µM. Still for that read-out and setting: as for `CCOC(=O)c1ccccc1-c1cc(NS(=O)(=O)c2ccccc2C)c(C(=O)O)s1` [Compound 103, 5-(2-ETHOXYCARBONYL-PHENYL)-3-(TOLUENE-2-SULFONYLAMINO)-THIOPHENE-2-CARBOXYLIC ACID], the figure is 5 to 20 µM. On to `Cc1ccc(S(=O)(=O)N(C)c2cc(-c3ccccc3)sc2C(=O)O)c(C)c1` [Compound 235, 3-[(2,4-DIMETHYL-BENZENESULFONYL)-METHYL-AMINO]-5-PHENYL-THIOPHENE-2-CARBOXYLIC ACID], for which the IC50 is less than 5 µM.

For the compound `Cc1ccc(C(=O)N(C)c2cc(-c3ccccc3)sc2C(=O)O)cc1` [Compound 93, 3-[METHYL-(4-METHYL-BENZOYL)-AMINO]-5-PHENYL-THIOPHENE-2-CARBOXYLIC ACID], the IC50 was less than 5 µM. On to `Cc1ccccc1S(=O)(=O)Nc1cc(-c2cccnc2)sc1C(=O)O` [Compound 87, 5-PYRIDIN-3-YL-3-(TOLUENE-2-SULFONYLAMINO)-THIOPHENE-2-CARBOXYLIC ACID], for which the IC50 was less than 5 µM. On the same count and under the same terms, the same measure for `CC(C)CC(=O)N(C)c1cc(-c2ccccc2)sc1C(=O)O` [Compound 172, 3-[METHYL-(3-METHYL-BUTYRYL)-AMINO]-5-PHENYL-THIOPHENE-2-CARBOXYLIC ACID]: less than 5 µM; for `Cc1ccccc1S(=O)(=O)Nc1cc(-c2ccc(-c3ccc(Br)cc3)cc2)sc1C(=O)O` [Compound 124, 5-(4′-BROMO-BIPHENYL-4-YL)-3-(TOLUENE-2-SULFONYLAMINO)-THIOPHENE-2-CARBOXYLIC ACID]: less than 5 µM. Regarding `O=C(O)c1sc(-c2ccccc2)cc1NS(=O)(=O)c1ccccc1Cl` [Compound 29, 3-(2-CHLORO-BENZENESULFONYLAMINO)-5-PHENYL-THIOPHENE-2-CARBOXYLIC ACID], the IC50 lay in the range of 5 to 20 µM. In the case of `Cc1ccccc1S(=O)(=O)Nc1cc(C#C[Si](C)(C)C)sc1C(=O)O` [Compound 79], the IC50 is less than 5 µM. Consider `CN(C(=O)c1ccc(C(F)(F)F)c(F)c1F)c1cc(-c2ccccc2)sc1C(=O)O` [Compound 278, 3-[(2,3-DIFLUORO-4-TRIFLUOROMETHYL-BENZOYL)-METHYL-AMINO]-5-PHENYL-THIOPHENE-2-CARBOXYLIC ACID], for which the 50% inhibitory concentration (IC50) was 5 to 20 µM.

On to `O=C(O)c1sc(-c2ccccc2)cc1NS(=O)(=O)c1ccc(Cl)cc1Cl` [Compound 7, 3-(2,4-DICHLORO-BENZENESULFONYLAMINO)-5-PHENYL-THIOPHENE-2-CARBOXYLIC ACID], for which the IC50 was less than 5 µM. On the same count and under the same terms, as for `CCN(C(=O)c1ccc(C)cc1)c1cc(-c2ccccc2)sc1C(=O)O` [Compound 185, 3-[ETHYL-(4-METHYL-BENZOYL)-AMINO]-5-PHENYL-THIOPHENE-2-CARBOXYLIC ACID], the figure is less than 5 µM. With `CC(C)N(C(=O)c1ccc(Cl)cc1[N+](=O)[O-])c1cc(-c2ccccc2)sc1C(=O)O` [Compound 329, 3-[(4-CHLORO-2-NITRO-BENZOYL)- ISOPROPYL-AMINO]-5-PHENYL- THIOPHENE-2-CARBOXYLIC ACID], the IC50 was less than 5 µM. As to `CC(C)CCC(=O)N(C)c1cc(-c2ccccc2)sc1C(=O)O` [Compound 390, 3-[METHYL-(4-METHYL-PENTANOYL)- AMINO]-5-PHENYL-THIOPHENE-2- CARBOXYLIC ACID], the IC50 is 5 to 20 µM. On to `Cc1ccc(C(=O)N(C)c2cc(-c3cc(F)cc(F)c3)sc2C(=O)O)cc1` [Compound 212, 5-(3,5-DIFLUORO-PHENYL)-3-[METHYL-(4-METHYL-BENZOYL)-AMINO]-THIOPHENE-2-CARBOXYLIC ACID], for which the IC50 is less than 5 µM.

For the next test, the target named is HCV NS3 enzyme (ATPase activity of HCV NS3 helicase) (Hepatitis C virus genotype 1b, UniProt P26663). The test is described as follows: ATPase activity of HCV NS3 helicase, HPLC Assay. The test is classed as biochemical. Particulars: ADP produced measured by paired-ion HPLC, 1 nM enzyme, read-out: Anti-ATPase (HPLC method) EC50. The protocol: Evaluation of Analogues for measurement of ATPase activity of HCV NS3 helicase
Chain of HCV NS3 enzyme (ATPase activity of HCV NS3 helicase) (P26663 1027-1657 limits assumed): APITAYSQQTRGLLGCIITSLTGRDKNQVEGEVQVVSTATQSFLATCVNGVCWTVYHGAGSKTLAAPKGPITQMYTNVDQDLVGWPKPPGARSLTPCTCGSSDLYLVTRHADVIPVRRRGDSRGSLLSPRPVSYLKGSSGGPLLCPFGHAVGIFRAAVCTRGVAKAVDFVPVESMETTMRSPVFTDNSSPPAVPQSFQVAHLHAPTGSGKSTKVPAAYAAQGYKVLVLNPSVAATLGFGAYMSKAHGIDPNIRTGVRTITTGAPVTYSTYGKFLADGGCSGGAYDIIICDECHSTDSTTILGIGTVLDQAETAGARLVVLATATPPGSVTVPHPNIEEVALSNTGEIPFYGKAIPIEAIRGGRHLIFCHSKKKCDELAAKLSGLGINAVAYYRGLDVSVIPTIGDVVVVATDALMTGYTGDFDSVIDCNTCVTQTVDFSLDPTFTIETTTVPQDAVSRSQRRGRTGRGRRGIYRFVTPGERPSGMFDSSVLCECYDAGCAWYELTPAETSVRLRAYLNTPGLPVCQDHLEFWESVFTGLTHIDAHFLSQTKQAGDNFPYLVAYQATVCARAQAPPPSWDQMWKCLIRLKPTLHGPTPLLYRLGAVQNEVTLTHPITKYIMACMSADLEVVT
The measurement of HCV NS3 ATPase activity was performed by measuring the amount of ADP produced during the conversion of ATP to ADP by the HCV NS3 enzyme using paired-ion HPLC on a reverse phase column. […]. The mobile phase was an isocratic solution of 0.15 M triethylamine, 6% methanol, and phosphoric acid to pH 5.5. ADP and ATP peaks were resolved using the Aqua 5μ, C18, 125 Å, (150×4.6 mm) reverse phase column. The extent of ATP conversion to ADP was evaluated by measuring the area under the ADP peak produced which was detected at 259 nm. The amount of ADP was corrected for the presence of ADP contaminant in the original ATP solution. […] The IC50 was determined from dose-response curves using six to eight concentrations per compound. Curves were fitted to data points using a non-linear regression analysis, and IC50s were interpolated from the resulting curves using GraphPad Prism software, version 2.0 (GraphPad Software Inc, San Diego, Calif.).
By EC50 is commonly meant the concentration giving half of the maximal effect. As for `CC(C)Cc1ccc(-c2cc(NS(=O)(=O)c3ccc(C#N)cc3Cl)c(C(=O)O)s2)cc1` [Compound #228, 3-(2-Chloro-4-cyanobenzenesulfonyl-amino)-5-(4-isobutylphenyl)-thiophene-2-carboxylic acid], the EC50 is more than 20 µM. Consider `COc1cccc(S(=O)(=O)Nc2cc(-c3ccc(CC(C)C)cc3)sc2C(=O)O)c1` [Compound #225], for which the EC50 is more than 20 µM. The same measure, in the same setting: the same measure for `CC(C)Cc1ccc(-c2cc(NS(=O)(=O)c3ccc(F)c(F)c3F)c(C(=O)O)s2)cc1` [Compound #582, 5-(4-Isobutyl-phenyl)-3-(2,3,4-trifluoro-benzenesulfonylamino)-thiophene-2-carboxylic acid]: more than 20 µM; for `CC(C)Cc1ccc(-c2cc(NS(=O)(=O)c3ccc(-c4cc(C(F)(F)F)on4)s3)c(C(=O)O)s2)cc1` [Compound #581, 5-(4-Isobutyl-phenyl)-3-[5-(5-trifluoromethyl-isoxazol-3-yl)-thiophene-2-sulfonylamino]-thiophene-2-carboxylic acid]: 5 to 20 µM.
